Reference: patent EP4699613A1, “NOVEL USE OF CPNE7 PROTEIN-DERIVED PEPTIDE” (Hysensbio Co., Ltd, priority 2023, dated 2024)
No end group written: not given here.

What was measured:
[1] = system: Human dermal fibroblasts (hDFs); test: WST-8 assay, cytotoxicity in dermal fibroblasts; assay type: cell-based; details: 48 hours treatment; tested at 10, 100 µM, 1, 5, 10 mM; WST-8, 450nm absorbance
Description: Human dermal fibroblasts (hDFs) were dispensed at 0.3×10^5/well in 96-well plates (using Fibroblast Growth Medium (Lonza, CC-4126) containing 2% FBS, 0.1% Insulin, 0.1% FGF, 0.1% Gentamycin sulfate-Amphotericin) and cultured for 24 hours in an incubator at 37°C, 5% CO2 conditions.
WST-8 analysis was performed to confirm cytotoxicity of the peptide (SEQ ID NO: 96) in dermal fibroblasts. The peptide was treated on dermal fibroblasts at concentrations of 10, 100 µM, 1, 5, 10 mM respectively. After treating for 48 hours at each concentration, WST-8 solution was dispensed into the culture medium at a 10:1 ratio, light-shielded, reacted for 2 hours under 37°C incubator conditions, and then measured at 450nm absorbance with a microplate.
The peptide (SEQ ID NO: 96) of the present invention was treated on dermal fibroblasts at concentrations of 10, 100 µM, 1, 5, 10 mM respectively. After 48 hours, cell viability was quantified through WST-8 analysis.

[2] = system: human-derived three-dimensional skin tissue; test: Skin penetration of fluorescence-conjugated peptide in human-derived three-dimensional skin tissue (confocal microscopy); assay type: in vitro ADME; details: 1 mM fluorescence-conjugated peptide
Description: To confirm the possibility of skin penetration of the peptides of the present invention, three-dimensional skin tissue composed of epidermis and dermis was created using human-derived keratinocytes and dermal fibroblasts, and then fluorescence-conjugated peptide (SEQ ID NO: 96) of the present invention at 1 mM was treated. After treatment, the position of fluorescence was continuously observed through confocal microscopy at 1, 6, 12, and 24 hours.
FITC fluorescence was attached to the lysine residue of the peptide (SEQ ID NO: 96) of the present invention to create Peptide-FITC using the peptide (SEQ ID NO: 96) of the present invention. Peptide-FITC at 1 mM was treated on human-derived three-dimensional skin tissue (TegoScience, Neoderm-ED) and the skin penetration state of Peptide-FITC was confirmed through confocal microscopy at 1 hour, 6 hours, 12 hours, and 24 hours.

## KYKQKRRSYK [SEQ ID NO: 96, KYKQKRRSYK]
[1]
  no cytotoxicity to dermal fibroblasts up to a concentration of: ≤ 5 mM
  significant cytotoxicity at a concentration of: 10 mM
[2]; after 1 hour
  position of fluorescence (skin penetration): observed in the stratum corneum
[2]; after 6 hours
  position of fluorescence (skin penetration): observed in the epidermal layer
[2]; after 24 hours
  position of fluorescence (skin penetration): existed in the dermal layer
[2]; from 12 hours onward
  position of fluorescence (skin penetration): began to be observed in the dermal layer
